From US20220233602A1, “GENERATION OF NEURAL STEM CELL LINES DERIVED FROM HUMAN PLURIPOTENT STEM CELLS” (Novo Nordisk A/S, priority 2019, published 2022)
Entries after “also recorded” stand apart in the source; their conditions may differ. Where two headings read alike, the source gives them in different places.

Legend:
hESC [1] = settings: for Cell death: 3 = low number of pyknotic nuclei; for Rosette: 3 = high number of neural rosettes; for Thickness Epithelium: thicker columnar epithelium of the neural rosette; for Final Score: sum of the parameter scores; for No Side Population (OTX2 Neg): score by OTX2 staining: 3 = no detection of OTX2 negative cells, evaluated only in conditions without NES negative cells
Protocol: The experimental protocol used for neural induction of hESC and subsequent generation and NSC line establishment can roughly be divided in three main stages—Neuroectoderm induction and NECS formation; NECS plating and rosette formation and finally NSC line establishment by replating the cells in expansion media.
50-90% confluent hESC were washed with PBS^−/− and dissociated from monolayer culture with TrypLE™ Select (Gibco) at 37° C. for approximately 5 minutes to obtain single-cell suspension. The single-cell suspension of hESCs was resuspended in NutriStem® supplemented with 10 μM ROCKi (Y-27632) and as standard 1 mL with cell densities of 1×10^5-2×10^5 cells per mL was seeded into one single well (around 3.5 cm^2) of a 12-well plates (Day 0).
At day 1, around 50% of the medium was exchanged with NECS media consisting of DMEM/F12 GlutaMAX™ supplement (Gibco™) supplemented with 20 U/mL Penicillin-streptomycin, 1% N-2 Supplement (Gibco™) and GW788388 or RepSox in different concentrations, without ROCKi. To initiate rotary NECS formation, plates were from day 1-6 placed on a Multi Bio 3D Mini-shaker (BioSan) at different speeds, timeslots, levels and angle. As an example, one optimal condition was:
The NECS media was exchanged everyday by removing half of the media and adding fresh medium. […] After 6 days in dynamic conditions all NECS were collected and plated in 2D on 48-well plates, laminin coated. For coating, 1:50 natural mouse laminin (L2020-1MG, Sigma-Aldrich, 1 mg/ml) was performing fine, but the type of laminin can be also extended to LN-521 or LN-511 (BioLamina). From day 7 to day 10, now in attachment in 2D, all media was removed, and cells were re-feed with fresh NECS media. An example of the different steps can be shown in FIG. 4, with images after Day 3 (dynamic suspension), Day 8 (neural rosettes in 2D) and Day 10 (before single cell dissociation).
The parameters measured were cell death, rosette formation, a monolayer formation in 2D, thickness of the epithelium formed in the rosette structure, and the absence of side population (all cells being NES and OTX2 positive), i.e. purity of the cell population
Cell death: Monitored by DAPI (4′,6-diamidino-2-phenylindole) staining. Pyknosis, or karyopyknosis, is the irreversible condensation of chromatin in the nucleus of a cell undergoing necrosis or apoptosis. After visual inspection under the fluorescent microscope, a score of 0 represent high number of pyknotic nuclei and a score of 3 a low number of pyknotic nuclei.
Rosette numbers: Monitored by DAPI, ZO1 and NES stainings. After visual inspection under the fluorescent microscope, a score of 0 represent low number of neural rosettes nuclei and a score of 3 a high number of rosettes.
Monolayer formation: Monitored by brightfield and DAPI staining. After visual inspection under the microscope, a score of 3 represent a flat monolayer of cells after NECS attachment.
Thickness of the rosette columnar epithelium: Monitored by DAPI staining. After visual inspection under the fluorescent microscope, a score of 3 represent a broader, thicker columnar epithelium of the neural rosette.
Side population: Monitored by specific stainings of NES and OTX2. After visual inspection under the fluorescent microscope, a score of […] represents no detection of NES negative cells. Only in conditions without NES negative cells, the OTX2 population was evaluated. In those cases, a score of 3 represents no detection of OTX2 negative cells.

hESC [2] = experiment: Differentiation protocol for NECS and rosette formation (brightfield, NES/ZO1 staining); type: cell-based, human; settings: for neural rosette formation, RepSox compared to GW788388: hESCs treated, NES and ZO1 staining (FIG. 6); for morphology of NECS: suspension culture, brightfield (FIG. 3)
From the text: As an example, one optimal condition was:

[3] = Low concentration (RepSox 0.25 μM, GW788388 0.1 ng/ml, SB525334 0.1 μM), score by DAPI: 0 = high number
[4] = Low concentration (RepSox 0.25 μM, GW788388 0.1 ng/ml, SB525334 0.1 μM), score: 0 = low number
[5] = Low concentration (RepSox 0.25 μM, GW788388 0.1 ng/ml, SB525334 0.1 μM), score: 3 = broader
[6] = Low concentration (RepSox 0.25 μM, GW788388 0.1 ng/ml, SB525334 0.1 μM), score: 3 = flat monolayer of cells after NECS attachment
[7] = Low concentration (RepSox 0.25 μM, GW788388 0.1 ng/ml, SB525334 0.1 μM), score: 6 = no detection of NES negative cells
[8] = Low concentration (RepSox 0.25 μM, GW788388 0.1 ng/ml, SB525334 0.1 μM)
[9] = score by DAPI staining: 0 = high number, RepSox 25 μM, LY2157299 10 μM, TEW-7197 10 μM, GW788388 10 ng/ml, SB525334 10 μM, SB431542 10 μM, SB431542+LDN 10 μM+10 μM, LY2109761 2 μM
[10] = score by DAPI, ZO1, NES staining: 0 = low number, RepSox 25 μM, LY2157299 10 μM, TEW-7197 10 μM, GW788388 10 ng/ml, SB525334 10 μM, SB431542 10 μM, SB431542+LDN 10 μM+10 μM, LY2109761 2 μM
[11] = score by DAPI: 3 = broader, RepSox 25 μM, LY2157299 10 μM, TEW-7197 10 μM, GW788388 10 ng/ml, SB525334 10 μM, SB431542 10 μM, SB431542+LDN 10 μM+10 μM, LY2109761 2 μM
[12] = score by NES staining: 6 = no detection of NES negative cells, RepSox 25 μM, LY2157299 10 μM, TEW-7197 10 μM, GW788388 10 ng/ml, SB525334 10 μM, SB431542 10 μM, SB431542+LDN 10 μM+10 μM, LY2109761 2 μM
[13] = score by brightfield and DAPI: 3 = flat monolayer of cells after NECS attachment, RepSox 25 μM, LY2157299 10 μM, TEW-7197 10 μM, GW788388 10 ng/ml, SB525334 10 μM, SB431542 10 μM, SB431542+LDN 10 μM+10 μM, LY2109761 2 μM
[14] = RepSox 25 μM, LY2157299 10 μM, TEW-7197 10 μM, GW788388 10 ng/ml, SB525334 10 μM, SB431542 10 μM, SB431542+LDN 10 μM+10 μM, LY2109761 2 μM
[15] = RepSox 25 μM, LY2157299 10 μM, TEW-7197 10 μM, SB431542+LDN 10 μM+10 μM, LY2109761 2 μM

Structure (SMILES): O=C(NC1CCOCC1)c1ccc(-c2cc(-c3cn[nH]c3-c3ccccn3)ccn2)cc1 [GW788388, N-(oxan-4-yl)-4-[4-(5-pyridin-2-yl-1H-pyrazol-4-yl)pyridin-2-yl]benzamide]
- Cell death (hESC [1]; [3]): 2
- Rosette (hESC [1]; [4]): 2
- Thickness Epithelium (hESC [1]; [5]): 2
- Monolayer formation (hESC [1]; [6]): 3
- No Side Population (NES Neg) (hESC [1]; [7]): 0
- Final Score (hESC [1]; [8]): 9
- Cell death (hESC [1]; [9]): 3
- Rosette (hESC [1]; [10]): 3
- Thickness Epithelium (hESC [1]; [11]): 3
- No Side Population (NES Neg) (hESC [1]; [12]): 0
- Monolayer formation (hESC [1]; [13]): 3
- Final Score (hESC [1]; [14]): 12
- neural rosette formation, RepSox compared to GW788388 (hESC [2]): only few rosettes are observed
- morphology of NECS (hESC [2]): darker and denser core

Structure (SMILES): c1ccc(-c2nn3c(c2-c2ccnc4cc(OCCN5CCOCC5)ccc24)CCC3)nc1 [LY2109761]
- Cell death (hESC [1]; [9]): 0
- Rosette (hESC [1]; [10]): 0
- Thickness Epithelium (hESC [1]; [11]): 0
- No Side Population (NES Neg) (hESC [1]; [12]): 6
- No Side Population (OTX2 Neg) (hESC [1]; [15]): 3
- Monolayer formation (hESC [1]; [13]): 0
- Final Score (hESC [1]; [14]): 9

Structure (SMILES): Cc1cccc(-c2nn3c(c2-c2ccnc4ccc(C(N)=O)cc24)CCC3)n1 [LY2157299, 4-[2-(6-methylpyridin-2-yl)-5,6-dihydro-4H-pyrrolo[1,2-b]pyrazol-3-yl]quinoline-6-carboxamide]
- Cell death (hESC [1]; [9]): 3
- Rosette (hESC [1]; [10]): 3
- Thickness Epithelium (hESC [1]; [11]): 3
- No Side Population (NES Neg) (hESC [1]; [12]): 6
- No Side Population (OTX2 Neg) (hESC [1]; [15]): 0
- Monolayer formation (hESC [1]; [13]): 2
- Final Score (hESC [1]; [14]): 17

Structure (SMILES): Cc1cccc(-c2n[nH]cc2-c2ccc3ncccc3n2)n1 [RepSox, 2-(3-(6-Methylpyridine-2-yl)-1H-pyrazol-4-yl)-1,5-naphthyridine]
- Rosette (hESC [1]; [4]): 3
- Thickness Epithelium (hESC [1]; [5]): 3
- Monolayer formation (hESC [1]; [6]): 3
- No Side Population (NES Neg) (hESC [1]; [7]): 0
- Final Score (hESC [1]; [8]): 12
- Rosette (hESC [1]; [10]): 3
- Thickness Epithelium (hESC [1]; [11]): 2
- No Side Population (NES Neg) (hESC [1]; [12]): 6
- No Side Population (OTX2 Neg) (hESC [1]; [15]): 3
- Monolayer formation (hESC [1]; [13]): 3
- Final Score (hESC [1]; [14]): 20
- homogeneous population of neural rosettes with NES positive cells and ZO1 in the center of each rosette (hESC [2]; RepSox 25 and 50 μM (FIGS. 7 and 8)): optimal to obtain an homogeneous population of neural rosettes
- neural rosette formation, RepSox compared to GW788388 (hESC [2]): superior; also recorded: multiple neural rosettes are observed
- homogeneous population of neural rosettes with NES positive cells and ZO1 in the center of each rosette (hESC [2]; lower concentrations of RepSox (0.25 μM, 2.5 μM; FIGS. 7 and 8)): less clear effect
- morphology of NECS (hESC [2]): more transparent NECS; also recorded: bright cavities

Structure (SMILES): NC(=O)c1ccc(-c2nc(-c3ccc4c(c3)OCO4)c(-c3ccccn3)[nH]2)cc1 [SB431542, 4-[4-(1,3-benzodioxol-5-yl)-5-(2-pyridinyl)-1H-imidazol-2-yl]benzamide]
- Rosette (hESC [1]; [10]): 3
- Thickness Epithelium (hESC [1]; [11]): 2
- No Side Population (NES Neg) (hESC [1]; [12]): 0
- Monolayer formation (hESC [1]; [13]): 2
- Final Score (hESC [1]; [14]): 10

Structure (SMILES): Cc1cccc(-c2[nH]c(C(C)(C)C)nc2-c2ccc3nccnc3c2)n1 [SB525334]
- Cell death (hESC [1]; [3]): 2
- Rosette (hESC [1]; [4]): 3
- Thickness Epithelium (hESC [1]; [5]): 3
- Monolayer formation (hESC [1]; [6]): 2
- No Side Population (NES Neg) (hESC [1]; [7]): 0
- Final Score (hESC [1]; [8]): 10
- Cell death (hESC [1]; [9]): 0
- Rosette (hESC [1]; [10]): 3
- Thickness Epithelium (hESC [1]; [11]): 2
- No Side Population (NES Neg) (hESC [1]; [12]): 4
- Monolayer formation (hESC [1]; [13]): 2
- Final Score (hESC [1]; [14]): 11

Structure (SMILES): Cc1cccc(-c2[nH]c(CNc3ccccc3F)nc2-c2ccc3ncnn3c2)n1 [TEW-7197, 2-fluoro-N[[5-(6-methylpyridin-2-yl)-4-([1,2,4]triazolo[1,5-a]pyridin-6-yl)-1H-imidazol-2-yl]methyl]aniline]
- Rosette (hESC [1]; [10]): 2
- Thickness Epithelium (hESC [1]; [11]): 2
- No Side Population (NES Neg) (hESC [1]; [12]): 6
- No Side Population (OTX2 Neg) (hESC [1]; [15]): 3
- Monolayer formation (hESC [1]; [13]): 2
- Final Score (hESC [1]; [14]): 15
